In publication PMC4832243, “Discovery of Potent VEGFR-2 Inhibitors based on Furopyrimidine and Thienopyrimidne Scaffolds as Cancer Targeting Agents” (Scientific Reports, 2016):

How the values were obtained:
Format in all cases: cell-based
[1] = system: UO-31; assay: NCI 60 cell line panel (SRB), UO-31; settings: Homo sapiens; UO-31, Renal Cancer; single dose of 10 μM; read-out: Cell Growth Percent
[2] = system: MCF7; assay: NCI 60 cell line panel (SRB), MCF7; settings: Homo sapiens; MCF7, Breast Cancer; single dose of 10 μM; read-out: Cell Growth Percent
[3] = system: SK-MEL-5; assay: NCI 60 cell line panel (SRB), SK-MEL-5; settings: Homo sapiens; SK-MEL-5, Melanoma; single dose of 10 μM; read-out: Cell Growth Percent
[4] = system: NCI-H522; assay: NCI 60 cell line panel (SRB), NCI-H522; settings: Homo sapiens; NCI-H522, Non-Small Cell Lung Cancer; single dose of 10 μM; read-out: Cell Growth Percent
[5] = system: NCI-H460; assay: NCI 60 cell line panel (SRB), NCI-H460; settings: Homo sapiens; NCI-H460, Non-Small Cell Lung Cancer; single dose of 10 μM; read-out: Cell Growth Percent
[6] = system: DU-145; assay: NCI 60 cell line panel (SRB), DU-145; settings: Homo sapiens; DU-145, Prostate Cancer; single dose of 10 μM; read-out: Cell Growth Percent
[7] = system: CAKI-1; assay: NCI 60 cell line panel (SRB), CAKI-1; settings: Homo sapiens; CAKI-1, Renal Cancer; single dose of 10 μM; read-out: Cell Growth Percent
[8] = system: SN12C; assay: NCI 60 cell line panel (SRB), SN12C; settings: Homo sapiens, Renal Cancer, single dose of 10 μM, read-out: Cell Growth Percent
[9] = system: A549/ATCC; assay: NCI 60 cell line panel (SRB), A549/ATCC; settings: Homo sapiens, Non-Small Cell Lung Cancer, single dose of 10 μM, read-out: Cell Growth Percent
[10] = system: LOX IMVI; assay: NCI 60 cell line panel (SRB), LOX IMVI; settings: Homo sapiens, Melanoma, single dose of 10 μM, read-out: Cell Growth Percent
[11] = system: SK-MEL-28; assay: NCI 60 cell line panel (SRB), SK-MEL-28; settings: Homo sapiens; SK-MEL-28, Melanoma; single dose of 10 μM; read-out: Cell Growth Percent
[12] = system: SNB-75; assay: NCI 60 cell line panel (SRB), SNB-75; settings: Homo sapiens; SNB-75, CNS Cancer; single dose of 10 μM; read-out: Cell Growth Percent
[13] = system: T-47D; assay: NCI 60 cell line panel (SRB), T-47D; settings: Homo sapiens, T47D, Breast Cancer, single dose of 10 μM, read-out: Cell Growth Percent
[14] = system: ACHN; assay: NCI 60 cell line panel (SRB), ACHN; settings: Homo sapiens, Renal Cancer, single dose of 10 μM, read-out: Cell Growth Percent
[15] = system: HS 578T; assay: NCI 60 cell line panel (SRB), HS 578T; settings: Homo sapiens, Breast Cancer, single dose of 10 μM, read-out: Cell Growth Percent
[16] = system: SNB-19; assay: NCI 60 cell line panel (SRB), SNB-19; settings: Homo sapiens; SNB-19, CNS Cancer; single dose of 10 μM; read-out: Cell Growth Percent
[17] = system: RPMI-8226; assay: NCI 60 cell line panel (SRB), RPMI-8226; settings: Homo sapiens; RPMI-8226, Leukemia; single dose of 10 μM; read-out: Cell Growth Percent
[18] = system: M14; assay: NCI 60 cell line panel (SRB), M14; settings: Homo sapiens; M14, Melanoma; single dose of 10 μM; read-out: Cell Growth Percent
[19] = system: EKVX; assay: NCI 60 cell line panel (SRB), EKVX; settings: Homo sapiens, Non-Small Cell Lung Cancer, single dose of 10 μM, read-out: Cell Growth Percent
[20] = system: SF-295; assay: NCI 60 cell line panel (SRB), SF-295; settings: Homo sapiens; SF-295, CNS Cancer; single dose of 10 μM; read-out: Cell Growth Percent
[21] = system: MDA-MB-231/ATCC; assay: NCI 60 cell line panel (SRB), MDA-MB-231/ATCC; settings: Homo sapiens, Breast Cancer, single dose of 10 μM, read-out: Cell Growth Percent
[22] = system: OVCAR-5; assay: NCI 60 cell line panel (SRB), OVCAR-5; settings: Homo sapiens; OVCAR-5, Ovarian Cancer; single dose of 10 μM; read-out: Cell Growth Percent
[23] = system: HCC-2998; assay: NCI 60 cell line panel (SRB), HCC-2998; settings: Homo sapiens; HCC-2998, Colon Cancer; single dose of 10 μM; read-out: Cell Growth Percent
[24] = system: SK-MEL-2; assay: NCI 60 cell line panel (SRB), SK-MEL-2; settings: Homo sapiens; SK-MEL-2, Melanoma; single dose of 10 μM; read-out: Cell Growth Percent
[25] = system: SR; assay: NCI 60 cell line panel (SRB), SR; settings: Homo sapiens, Leukemia, single dose of 10 μM, read-out: Cell Growth Percent
[26] = system: HT29; assay: NCI 60 cell line panel (SRB), HT29; settings: Homo sapiens, HT-29; HT29, Colon Cancer; single dose of 10 μM; read-out: Cell Growth Percent
[27] = system: OVCAR-4; assay: NCI 60 cell line panel (SRB), OVCAR-4; settings: Homo sapiens; OVCAR-4, Ovarian Cancer; single dose of 10 μM; read-out: Cell Growth Percent
[28] = system: HL-60(TB); assay: NCI 60 cell line panel (SRB), HL-60(TB); settings: Homo sapiens, Leukemia, single dose of 10 μM, read-out: Cell Growth Percent
[29] = system: MDA-MB-435; assay: NCI 60 cell line panel (SRB), MDA-MB-435; settings: Homo sapiens; MDA-MB-435, Melanoma; single dose of 10 μM; read-out: Cell Growth Percent
[30] = system: PC-3; assay: NCI 60 cell line panel (SRB), PC-3; settings: Homo sapiens; PC-3, Prostate Cancer; single dose of 10 μM; read-out: Cell Growth Percent
[31] = system: SW-620; assay: NCI 60 cell line panel (SRB), SW-620; settings: Homo sapiens; SW-620, Colon Cancer; single dose of 10 μM; read-out: Cell Growth Percent
[32] = system: OVCAR-8; assay: NCI 60 cell line panel (SRB), OVCAR-8; settings: Homo sapiens; OVCAR-8, Ovarian Cancer; single dose of 10 μM; read-out: Cell Growth Percent
[33] = system: UACC-257; assay: NCI 60 cell line panel (SRB), UACC-257; settings: Homo sapiens; UACC-257, Melanoma; single dose of 10 μM; read-out: Cell Growth Percent
[34] = system: HCT-15; assay: NCI 60 cell line panel (SRB), HCT-15; settings: Homo sapiens; HCT-15, Colon Cancer; single dose of 10 μM; read-out: Cell Growth Percent
[35] = system: NCI-H226; assay: NCI 60 cell line panel (SRB), NCI-H226; settings: Homo sapiens; NCI-H226, Non-Small Cell Lung Cancer; single dose of 10 μM; read-out: Cell Growth Percent

| Structure (SMILES) | activity at 10 µM [1] | activity at 10 µM [2] | activity at 10 µM [3] | activity at 10 µM [4] | activity at 10 µM [5] | activity at 10 µM [6] | activity at 10 µM [7] | activity at 10 µM [8] | activity at 10 µM [9] | activity at 10 µM [10] | activity at 10 µM [11] | activity at 10 µM [12] | activity at 10 µM [13] | activity at 10 µM [14] | activity at 10 µM [15] | activity at 10 µM [16] | activity at 10 µM [17] | activity at 10 µM [18] | activity at 10 µM [19] | activity at 10 µM [20] | other results |
| --- | --- | --- | --- | --- | --- | --- | --- | --- | --- | --- | --- | --- | --- | --- | --- | --- | --- | --- | --- | --- | --- |
| CCOC(=O)c1c(C)oc2ncnc(Nc3ccc(C(=O)Nc4cccc(Cl)c4)cc3)c12 [Compound 14a] | 89.5% | 90.6% | 92.2% | 78% | 100% | 75.9% | 99.2% | 94.1% | 95.3% | 93.1% | 105% | 105% | 98.2% | 114% | 107% | 102% | 94.6% | 95.2% | 102% | 115% | activity at 10 µM [21]: 95.8%; activity at 10 µM [22]: 116%; activity at 10 µM [23]: 105%; activity at 10 µM [24]: 99.8%; activity at 10 µM [25]: 74.8%; activity at 10 µM [26]: 83.6%; activity at 10 µM [27]: 98%; activity at 10 µM [28]: 105%; activity at 10 µM [29]: 106%; activity at 10 µM [30]: 78.3%; activity at 10 µM [31]: 106%; activity at 10 µM [32]: 103%; activity at 10 µM [33]: 117%; activity at 10 µM [34]: 108%; activity at 10 µM [35]: 97% |
| COc1cccc(NC(=O)Nc2ccc(Oc3ncnc4sc5c(c34)CCCC5)cc2)c1 [Compound 21c] | 52.5% | 54.4% | 63.6% | 21% | 65.7% | 82.4% | 80.8% | 78.2% | 61.2% | 61.5% | 83.7% | 50.3% | 41.7% | 75% | 60.9% | 70.2% | 46.7% | 67.3% | 66.2% | 76.1% | activity at 10 µM [21]: 69.6%; activity at 10 µM [22]: 105%; activity at 10 µM [23]: 102%; activity at 10 µM [24]: 97.3%; activity at 10 µM [25]: 50.9%; activity at 10 µM [26]: 54.8%; activity at 10 µM [27]: 56.6%; activity at 10 µM [28]: 106%; activity at 10 µM [29]: 73.1%; activity at 10 µM [30]: 45%; activity at 10 µM [31]: 96.3%; activity at 10 µM [32]: 89.9%; activity at 10 µM [33]: 100%; activity at 10 µM [34]: 67.1%; activity at 10 µM [35]: 65.1% |
| O=C(Nc1ccc(Nc2ncnc3sc4c(c23)CCCC4)cc1)Nc1cccc(Cl)c1 [Compound 20d] | 90.9% | 91.9% | 98.1% | 92.1% | 110% | 110% | 97.2% | 102% | 74.2% | 103% | 104% | 94.4% | 100% | 99.7% | 103% | 108% | 106% | 99.3% | 96.9% | 96.8% | activity at 10 µM [21]: 101%; activity at 10 µM [22]: 108%; activity at 10 µM [23]: 103%; activity at 10 µM [24]: 116%; activity at 10 µM [25]: 102%; activity at 10 µM [26]: 87.8%; activity at 10 µM [27]: 101%; activity at 10 µM [28]: 98.9%; activity at 10 µM [29]: 104%; activity at 10 µM [30]: 96%; activity at 10 µM [31]: 108%; activity at 10 µM [32]: 112%; activity at 10 µM [33]: 93.8%; activity at 10 µM [34]: 104%; activity at 10 µM [35]: 103% |
| Cc1cccc(NC(=O)Nc2ccc(Oc3ncnc4sc5c(c34)CCCC5)cc2)c1 [Compound 21b] | 59% | 44.1% | 72.9% | 16.1% | 65.2% | 81.3% | 86% | 75.9% | 66.5% | 77.3% | 91.6% | 51.9% | 49.2% | 73.4% | 76.8% | 72% | 58.9% | 68.2% | 62.8% | 67.6% | activity at 10 µM [21]: 81.9%; activity at 10 µM [22]: 114%; activity at 10 µM [23]: 104%; activity at 10 µM [24]: 99.7%; activity at 10 µM [25]: 55.8%; activity at 10 µM [26]: 65.6%; activity at 10 µM [27]: 61.2%; activity at 10 µM [28]: 98.4%; activity at 10 µM [29]: 79.3%; activity at 10 µM [30]: 37.5%; activity at 10 µM [31]: 103%; activity at 10 µM [32]: 85.9%; activity at 10 µM [33]: 107%; activity at 10 µM [34]: 74.9%; activity at 10 µM [35]: 73.1% |
| O=C(Nc1ccccc1)Nc1ccc(Nc2ncnc3sc4c(c23)CCCC4)cc1 [Compound 20a] | 71.5% | 96.2% | 97.3% | 92.9% | 104% | 109% | 100% | 99.2% | 73.8% | 99.4% | 116% | 93.3% | 100% | 101% | 85.3% | 95.9% | 99.2% | 103% | 102% | 102% | activity at 10 µM [21]: 91.6%; activity at 10 µM [22]: 119%; activity at 10 µM [23]: 95.3%; activity at 10 µM [24]: 114%; activity at 10 µM [25]: 97.8%; activity at 10 µM [26]: 96.1%; activity at 10 µM [27]: 107%; activity at 10 µM [28]: 97%; activity at 10 µM [29]: 112%; activity at 10 µM [30]: 89.8%; activity at 10 µM [31]: 106%; activity at 10 µM [32]: 107%; activity at 10 µM [33]: 93.5%; activity at 10 µM [34]: 110%; activity at 10 µM [35]: 89.8% |
